# Patent publication US20190247376A1, “NICOTINIC ACETYLCHOLINE RECEPTOR AGONIST ATTENUATES ILC2-DEPENDENT AIRWAY HYPERREACTIVITY” (University of Southern California, priority 2016, published 2019)
# How the values were obtained:
# α4β2 subtype of nAChR = α4β2 subtype of nAChR (Homo sapiens, UniProt P17787+P43681); conditions: cited from earlier work
# [1] = system: Rag2 GC double knockout mice with adoptively transferred human ILC2s; test: Human ILC2-mediated AHR in humanized ILC2 mice; assay type: in vivo, mouse; conditions: i.n. IL-33, agonist three consecutive days
# Description: FIGS. 7A-7E: α7nAChR agonist prevents human ILC2s mediated AHR and allergic. (FIG. 7A) Human ILC2s were purified from PBMCs via FACS and cultured (10^4 cells per mL) in the presence of recombinant human IL-33 (20 ng mL^−1), IL-2 (10 ng mL^−1), and IL-7 (20 ng mL^−1), with or without α7nAChR agonist for 24h. In the right panel, data are presented as means of four individual donors. […]
# Finally, to confirm the efficacy of α7nAChR agonist treatment in human ILC2-mediated AHR, sorted human ILC2s (hILC2s) were cultured in the presence of rh-IL-2 (20 ng mL^−1) and rh-IL-7 (20 ng mL^−1) for 48 hours. […] These humanized mice were given i.n. rh-IL33 (1 μg per mice) with or without α7nAChR agonists (125 µg mL^−1) for three consecutive days, and then AHR was evaluated (FIG. 7B). […]
# For human peripheral ILC2s, peripheral blood mononuclear cells (PBMCs) were first isolated from human fresh blood by diluting the blood 1:1 in PBS, adding to SepMate™-50 separation tubes (STEMCELL Technologies Inc, Vancouver, Canada) prefilled with 15-mL Lymphoprep™ each (Axis-Shield, Oslo, Norway), and centrifuging at 1200 g for 15 minutes. […] On day 4, lung function was measured and BAL was performed and analyzed.
# α4β2 subtype of nAChR, sequence (P43681 29-627 limits assumed): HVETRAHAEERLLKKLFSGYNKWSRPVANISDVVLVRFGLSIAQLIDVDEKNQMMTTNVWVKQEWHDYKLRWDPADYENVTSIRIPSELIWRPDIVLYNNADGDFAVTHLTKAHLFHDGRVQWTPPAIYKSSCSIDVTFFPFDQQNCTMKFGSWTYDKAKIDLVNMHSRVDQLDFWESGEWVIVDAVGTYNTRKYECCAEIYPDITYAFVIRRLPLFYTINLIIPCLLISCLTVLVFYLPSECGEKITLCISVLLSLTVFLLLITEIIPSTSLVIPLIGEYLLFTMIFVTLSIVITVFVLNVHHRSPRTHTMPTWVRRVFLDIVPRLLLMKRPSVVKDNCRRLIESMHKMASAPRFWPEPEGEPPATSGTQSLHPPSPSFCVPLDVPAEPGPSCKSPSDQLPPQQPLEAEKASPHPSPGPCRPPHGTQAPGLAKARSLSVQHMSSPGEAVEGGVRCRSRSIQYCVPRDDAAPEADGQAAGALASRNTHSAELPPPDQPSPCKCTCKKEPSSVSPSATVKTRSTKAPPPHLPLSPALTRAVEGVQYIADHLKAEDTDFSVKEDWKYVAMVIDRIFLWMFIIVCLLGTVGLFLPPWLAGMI
# α4β2 subtype of nAChR, sequence (P17787 26-502): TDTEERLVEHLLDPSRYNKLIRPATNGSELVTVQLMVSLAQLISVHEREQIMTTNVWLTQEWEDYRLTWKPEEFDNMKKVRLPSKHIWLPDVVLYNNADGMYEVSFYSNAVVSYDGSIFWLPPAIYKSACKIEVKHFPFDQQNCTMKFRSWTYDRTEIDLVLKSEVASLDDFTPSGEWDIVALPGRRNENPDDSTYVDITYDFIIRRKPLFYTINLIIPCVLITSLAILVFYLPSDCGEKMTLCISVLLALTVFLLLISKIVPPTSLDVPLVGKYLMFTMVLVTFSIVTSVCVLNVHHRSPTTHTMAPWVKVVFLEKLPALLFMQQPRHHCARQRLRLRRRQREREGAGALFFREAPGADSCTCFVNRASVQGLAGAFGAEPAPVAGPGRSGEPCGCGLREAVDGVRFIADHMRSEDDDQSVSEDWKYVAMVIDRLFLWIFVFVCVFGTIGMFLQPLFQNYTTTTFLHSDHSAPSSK
structure (smiles),measurement,setting,value
"COc1ccc(/C=C2\CCCN=C2c2cccnc2)c(OC)c1 [GTS-21, 3-[(3E)-3-[(2,4-dimethoxyphenyl)methylidene]-5,6-dihydro-4H-pyridin-2-yl]pyridine]",binding to the α4β2 subtype,α4β2 subtype of nAChR,binds
same,ILC2-mediated AHR (lung resistance),[1],dampened
same,"allergic inflammation (eosinophils in BALF, lung ILC2s)",[1],dampened
